molecular target: T1, Full-length USP19 (Homo sapiens, UniProt O94966); assay: USP19 fluorescence polarisation (FP) assay, Ubiquitin-Lys-TAMRA substrate; type: biochemical; conditions: average of at least two duplicate experiments
T1 construct: Full-length USP19 was purchased from Boston Biochem (E-576); purchased Boston Biochem E-576
T1 sequence (O94966 1-1318): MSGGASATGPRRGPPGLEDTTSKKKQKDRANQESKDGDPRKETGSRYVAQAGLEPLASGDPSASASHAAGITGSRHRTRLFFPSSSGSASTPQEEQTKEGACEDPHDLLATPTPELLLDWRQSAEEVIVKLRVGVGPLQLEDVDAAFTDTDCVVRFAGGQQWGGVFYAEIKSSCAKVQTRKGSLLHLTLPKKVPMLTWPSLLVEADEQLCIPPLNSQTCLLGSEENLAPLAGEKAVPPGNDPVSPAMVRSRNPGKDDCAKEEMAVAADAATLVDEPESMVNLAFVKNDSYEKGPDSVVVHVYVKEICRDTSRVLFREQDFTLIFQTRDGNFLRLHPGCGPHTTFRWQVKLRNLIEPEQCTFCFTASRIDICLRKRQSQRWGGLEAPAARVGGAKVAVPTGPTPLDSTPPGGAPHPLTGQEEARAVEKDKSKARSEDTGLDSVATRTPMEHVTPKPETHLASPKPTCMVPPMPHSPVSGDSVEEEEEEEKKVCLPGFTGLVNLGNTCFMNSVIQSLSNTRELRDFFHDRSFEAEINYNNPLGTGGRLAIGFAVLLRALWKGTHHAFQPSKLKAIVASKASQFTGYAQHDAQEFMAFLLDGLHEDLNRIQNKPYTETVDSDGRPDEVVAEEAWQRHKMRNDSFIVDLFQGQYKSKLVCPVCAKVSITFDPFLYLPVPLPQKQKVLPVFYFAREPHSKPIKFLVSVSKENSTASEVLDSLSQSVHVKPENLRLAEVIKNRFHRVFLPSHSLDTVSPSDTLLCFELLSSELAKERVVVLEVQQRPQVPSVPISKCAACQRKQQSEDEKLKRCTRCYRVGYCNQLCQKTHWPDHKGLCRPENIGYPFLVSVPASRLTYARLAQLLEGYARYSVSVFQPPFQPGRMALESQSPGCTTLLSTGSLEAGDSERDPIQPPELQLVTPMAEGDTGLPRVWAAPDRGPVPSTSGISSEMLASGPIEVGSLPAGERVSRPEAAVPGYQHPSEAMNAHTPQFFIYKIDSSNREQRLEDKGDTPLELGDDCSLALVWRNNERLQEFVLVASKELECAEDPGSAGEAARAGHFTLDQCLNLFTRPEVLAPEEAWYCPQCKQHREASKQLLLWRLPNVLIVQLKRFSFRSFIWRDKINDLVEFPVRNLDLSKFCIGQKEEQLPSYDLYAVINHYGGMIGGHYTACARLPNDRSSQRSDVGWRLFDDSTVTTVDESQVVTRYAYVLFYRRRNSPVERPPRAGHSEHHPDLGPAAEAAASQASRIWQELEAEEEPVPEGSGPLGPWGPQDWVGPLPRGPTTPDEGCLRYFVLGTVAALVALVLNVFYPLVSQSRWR
Procedure: USP19 activity was determined in a fluorescence polarisation (FP) homogeneous assay using the isopeptide Ubiquitin-Lys-TAMRA substrate (either AUB-101, Almac Sciences Scotland Limited, or U-558, Boston Biochem, both of which gave identical results). Full-length USP19 was purchased from Boston Biochem (E-576). Unless otherwise stated, all other reagents were purchased from Sigma. Enzymatic reactions were conducted in black flat bottom polystyrene 384-well plates (Nunc) and 30 μL total volume. USP19 (2.5 nM, 10 μL) was incubated in assay buffer (50 mM HEPES (pH 7.4), 150 mM NaCl, 5 mM DTT, 0.05% BSA (w/v), 0.05% CHAPS) in the presence or absence of inhibitor (10 μL). Inhibitors were stored as 10 mM DMSO stocks in an inert environment (low humidity, dark, low oxygen, rt) using the StoragePod® system (Roylan Developments) and serial dilutions were prepared in buffer just prior to the assay (from 200 μM to 2 μM, 8-18 data point curve). Following incubation at RT for 30 min, the enzymatic reactions were initiated by dispensing the Ub substrate (500 nM, 10 μL). FP was measured every 15 min over a period of 90 min (within the linear range of the assay) using a Synergy 4 plate reader (BioTek) exciting at 530 nm and measuring the amount of parallel and perpendicular light at 575 nm. The FP signal was subsequently normalised to the no compound control. Data were plotted and fitted, and the concentrations resulting in 50% inhibition (IC50) were calculated using the non-linear regression curve fitting model using GraphPad (Prism). IC50 values for the inhibitors of the invention are compiled in Tables 1 and 3 and represent the average of at least two duplicate experiments.

**Q.** With `CN[C@@H]1CCN(C(=O)N2CC[C@@H](Cn3cnc(-c4ccccc4C)cc3=O)C3(CCCC3)C2)[C@H](c2ccc(F)cc2F)C1` [Example 137, 3-(((R)-7-((2S,4R)-2-(2,4-Difluorophenyl)-4-(methylamino)piperidine-1-carbonyl)-7-azaspiro[4.5]decan-10-yl)methyl)-6-(o-tolyl)pyrimidin-4(3H)-one] as the molecule, how does the IC50 read?
**A.** The IC50 was under 10 nM.

**Q.** `N[C@@H]1CCN(C(=O)N2CCC(Cn3cnc(C4CC4)cc3=O)C3(CCCC3)C2)[C@H](c2ccccc2)C1` (stereo partly drawn) [Example 29, 3-((7-((2S,4R)-4-Amino-2-phenylpiperidine-1-carbonyl)-7-azaspiro[4.5]decan-10-yl)methyl)-6-cyclopropyl-pyrimidin-4(3H)-one] was tested. Which IC50 did it give?
**A.** The IC50 was under 10 nM.

**Q.** For `CN[C@@H]1CCN(C(=O)N2CC[C@@H](Cn3cnc(-c4ccccc4C)cc3=O)C3(CCCC3)C2)[C@H](c2cccc(F)c2F)C1` [Example 136, 3-(((R)-7-((2S,4R)-2-(2,3-Difluorophenyl)-4-(methylamino)piperidine-1-carbonyl)-7-azaspiro[4.5]decan-10-yl)methyl)-6-(0-tolyl)pyrimidin-4(3H)-one], which IC50 is on record?
**A.** Its IC50 is under 10 nM.

**Q.** Which IC50 does the source give for `CN[C@@H]1CCN(C(=O)N2CC[C@@H](Cn3cnc4ccc(F)cc4c3=O)C3(CCCC3)C2)[C@H](c2cc(F)ccc2F)C1` [Example 125, 3-(((R)-7-((2S,4R)-2-(2,5-Difluorophenyl)-4-(methylamino)piperidine-1-carbonyl)-7-azaspiro[4.5]decan-10-yl)methyl)-6-fluoroquinazolin-4(3H)-one] here?
**A.** Its IC50 is under 10 nM.

**Q.** With `N[C@@H]1CCN(C(=O)N2CCC(Cn3ccc4ccncc4c3=O)C3(CCCC3)C2)[C@H](c2ccccc2)C1` (stereo partly drawn) [Example 33, 2-((7-((2S,4R)-4-Amino-2-phenylpiperidine-1-carbonyl)-7-azaspiro[4.5]decan-10-yl)methyl)-2,7-naphthyridin-1(2H)-one] as the molecule, how does the IC50 read?
**A.** Its IC50 is 10 to 100 nM.

**Q.** For `N[C@@H]1CCN(C(=O)N2CCC(Cn3ccc(C(F)F)cc3=O)C3(CCCC3)C2)[C@H](c2ccccc2)C1` (stereo partly drawn) [Example 38, 1-((7-((2S,4R)-4-Amino-2-phenylpiperidine-1-carbonyl)-7-azaspiro[4.5]decan-10-yl)methyl)-4-(difluoromethyl) pyridin-2(1H)-one], which IC50 is on record?
**A.** Its IC50 is under 10 nM.

**Q.** `CN[C@@H]1CCN(C(=O)N2CC[C@@H](Cn3ccc(-c4ccccc4)cc3=O)C3(CCCC3)C2)[C@H](c2cc(F)ccc2F)C1` [Example 91, 1-(((R)-7-((2S,4R)-2-(2,5-Difluorophenyl)-4-(methylamino)piperidine-1-carbonyl)-7-azaspiro[4.5]decan-10-yl)methyl)-4-phenylpyridin-2(1H)-one] was tested. Which IC50 did it give?
**A.** Its IC50 is under 10 nM.

**Q.** Which IC50 does the source give for `CN[C@@H]1CCN(C(=O)N2CC[C@@H](Cn3cnc(-c4ccccc4OC)cc3=O)C3(CCCC3)C2)[C@H](c2ccc(F)cc2)C1` [Example 104, 3-(((R)-7-((2S,4R)-2-(4-Fluorophenyl)-4-(methylamino)piperidine-1-carbonyl)-7-azaspiro[4.5]decan-10-yl)methyl)-6-(2-methoxyphenyl)pyrimidin-4(3H)-one] here?
**A.** Its IC50 is under 10 nM.

**Q.** For `CN[C@@H]1CCN(C(=O)N2CC[C@@H](Cn3cnc(C4CC4)cc3=O)C3(CCCC3)C2)[C@H](c2cc(F)ccc2F)C1` [Example 163, 6-Cyclopropyl-3-(((R)-7-((2S,4R)-2-(2,5-difluorophenyl)-4-(methylamino)piperidine-1-carbonyl)-7-azaspiro[4.5]decan-10-yl)methyl)pyrimidin-4(3H)-one], which IC50 is on record?
**A.** The IC50 was under 10 nM.

**Q.** For `Cn1ccc(N[C@@H]2CCN(C(=O)N3CC[C@@H](Cn4cnc(-c5ccccc5)cc4=O)C4(CCCC4)C3)[C@H](c3ccccc3)C2)n1` [Example 147, 3-(((R)-7-((2S,4R)-4-((1-Methyl-1H-pyrazol-3-yl)amino)-2-phenylpiperidine-1-carbonyl)-7-azaspiro[4.5]decan-10-yl)methyl)-6-phenylpyrimidin-4(3H)-one], which IC50 is on record?
**A.** Its IC50 is 100 to 1000 nM.

**Q.** How did the IC50 turn out when `N[C@@H]1CCN(C(=O)N2CC[C@@H](Cn3cnc(-c4ccccc4)cc3=O)C3(CCCC3)C2)[C@H](c2cccc(F)c2)C1` [Example 66, 3-(((R)-7-((2,4R)-4-Amino-2-(3-fluorophenyl)piperidine-1-carbonyl)-7-azaspiro[4.5]decan-10-yl)methyl)-6-phenylpyrimidin-4(3H)-one] was run?
**A.** Its IC50 is under 10 nM.

**Q.** How did the IC50 turn out when `CC1(N[C@@H]2CCN(C(=O)N3CC[C@@H](Cn4cnc(-c5ccccc5)cc4=O)C4(CCCC4)C3)[C@H](c3ccccc3)C2)CC1` [Example 151, 3-(((R)-7-((2S,4R)-4-((1-Methylcyclopropyl)amino)-2-phenylpiperidine-1-carbonyl)-7-azaspiro[4.5]decan-10-yl)methyl)-6-phenylpyrimidin-4(3H)-one] was run?
**A.** The IC50 was under 10 nM.

**Q.** With `COc1ccccc1-c1cc(=O)n(C[C@@H]2CCN(C(=O)N3CC[C@@H](N)C[C@H]3c3ccccc3)CC23CCCC3)cn1` [Example 92, 3-(((R)-7-((2S,4R)-4-Amino-2-phenylpiperidine-1-carbonyl)-7-azaspiro[4.5]decan-10-yl)methyl)-6-(2-methoxyphenyl)pyrimidin-4(3H)-one] as the molecule, how does the IC50 read?
**A.** The IC50 was under 10 nM.

**Q.** For `CN[C@@H]1CCN(C(=O)N2CC[C@@H](Cn3cnc4ccc(F)cc4c3=O)C3(CCCC3)C2)[C@H](c2cccc(F)c2F)C1` [Example 166, 3-(((R)-7-((2S,4R)-2-(2,3-Difluorophenyl)-4-(methylamino)piperidine-1-carbonyl)-7-azaspiro[4.5]decan-10-yl)methyl)-6-fluoroquinazolin-4(3H)-one], which IC50 is on record?
**A.** Its IC50 is under 10 nM.

**Q.** `CN[C@@H]1CCN(C(=O)N2CC[C@@H](Cn3cnc(C(F)F)cc3=O)C3(CCCC3)C2)[C@H](c2ccc(F)cc2F)C1` [Example 130, 6-(Difluoromethyl)-3-(((R)-7-((2S,4R)-2-(2,4-difluorophenyl)-4-(methylamino)piperidine-1-carbonyl)-7-azaspiro[4.5]decan-10-yl)methyl)pyrimidin-4(3H)-one] was tested. Which IC50 did it give?
**A.** The IC50 was under 10 nM.

**Q.** How did the IC50 turn out when `CN[C@@H]1CCN(C(=O)N2CC[C@@H](Cn3ccc(-c4ccccc4OC)cc3=O)C3(CCCC3)C2)[C@H](c2ccccc2)C1` [Example 53, 4-(2-Methoxyphenyl)-1-(((R)-7-((2S,4R)-4-(methylamino)-2-phenylpiperidine-1-carbonyl)-7-azaspiro[4.5]decan-10-yl)methyl)pyridin-2(1H)-one] was run?
**A.** Its IC50 is under 10 nM.

**Q.** How did the IC50 turn out when `CN[C@@H]1CCN(C(=O)N2CC[C@@H](Cn3cnc(-c4ccccc4C)cc3=O)C3(CCCC3)C2)[C@H](c2ccccc2)C1` [Example 84, 3-(((R)-7-((2S,4R)-4-(Methylamino)-2-phenylpiperidine-1-carbonyl)-7-azaspiro[4.5]decan-10-yl)methyl)-6-(o-tolyl)pyrimidin-4(3H)-one] was run?
**A.** The IC50 was under 10 nM.

**Q.** How did the IC50 turn out when `O=C1OCCN1[C@@H]1CCN(C(=O)N2CC[C@@H](Cn3cnc(-c4ccccc4)cc3=O)C3(CCCC3)C2)[C@H](c2cccc(F)c2)C1` [Example 197, 3-((2S,4R)-2-(3-Fluorophenyl)-1-((R)-10-((6-oxo-4-phenylpyrimidin-1(6H)-yl)methyl)-7-azaspiro[4.5]decane-7-carbonyl)piperidin-4-yl)oxazolidin-2-one] was run?
**A.** Its IC50 is 10 to 100 nM.

Reference: US20240327382A1 (ALMAC DISCOVERY LIMITED, priority 2021, published 2024)
